molecular target: T1, streptavidin (Streptomyces avidinii, UniProt P22629); experiment: Cy5-streptavidin binding on HotSpot discovery array, 5-mer L-peptide library; conditions: 5-mer L-peptide library array, Cy5-streptavidin; from average of three arrays
T1 construct: purchased GE Healthcare (Little Chalfont, UK)
Summary of the method: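 Array of 2,476,099 5-mer peptides (19 amino acids, no cysteine) with Gly-Ser linkers, probed overnight at 4 °C with 0.5 µg/ml Cy5-streptavidin in Tris pH 7.4 buffer containing casein or BSA plus Tween-20. Cy5 fluorescence read at 635 nm; peptides selected by signal-to-background >4 across three arrays.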

T1 sequence (P22629 25-183): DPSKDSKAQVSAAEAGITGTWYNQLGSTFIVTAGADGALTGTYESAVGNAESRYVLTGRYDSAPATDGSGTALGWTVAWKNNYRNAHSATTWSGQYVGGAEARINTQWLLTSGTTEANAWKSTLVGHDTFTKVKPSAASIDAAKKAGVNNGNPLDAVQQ

Substance | S/B (signal to background ratio)
TPHPQ | 142.6
HPMFS | 20.6
HPQAG | 125.6
MIHPM | 32.1
QHPQM | 40.0
QPHPM | 52.0
PHPQQ | 53.1
NHPQI | 21.1
MPHPQ | 180.4
HHPQN | 150.9
GLHPQ | 132.8
FHPQT | 34.8
KHHPM | 29.1
GTHPQ | 132.9
RMHPM | 37.9
APHPQ | 142.8
PAWAH [L-amino acid 5-mer array peptide] | 50.0
IFHPQ | 166.8
HHPQI | 19.7
WVHPQ | 169.6
THPQQ | 42.4

Substance | S/B (signal to background ratio)
HPQFS | 123.4
YHPQG | 153.3
PKHPM | 19.4
EMHPQ | 44.9
THPMG | 43.8
EGHPM | 22.4
LVHPM | 31.0
WFHPQ | 178.0
FHPQA | 138.8
QQHPM | 43.3
GGHPQ | 124.2
RHPQA | 134.8
TNHPQ | 135.8
PPHPQ | 150.0
FLHPQ | 145.5
SHPQA | 137.0
LGEYH [L-amino acid 5-mer array peptide] | 21.3
RHPQG | 124.2
HPQYG | 55.1
MHPQV | 55.8
HPQYA | 20.2

Substance | S/B (signal to background ratio)
WHPQV | 137.6
MHPMV | 20.7
AMHPM | 42.8
HPHPQ | 185.1
LTHPQ | 150.0
HPQNL | 57.7
FAHPQ | 186.9
RHHPQ | 148.9
YHPQN | 176.5
AWHPQ | 172.2
APHPM | 38.6
TFHPM | 52.6
PYHPM | 54.5
QSHPQ | 135.3
AHPQQ | 34.0
KPHPM | 21.9
STHPM | 48.2
DHPQS | 49.1
VPHPM | 45.9
FHPMV | 27.2
LAMFH [L-amino acid 5-mer array peptide] | 21.1

Substance | S/B (signal to background ratio)
SHPMS | 25.8
LGQYH [L-amino acid 5-mer array peptide] | 31.1
QHHPQ | 136.3
PHPQT | 24.1
QHPQG | 122.5
RHHPM | 53.8
EQHPQ | 43.8
HPQFP | 141.5
FHPMN | 26.9
WHPQG | 184.5
WRHPQ | 235.3
GAHPQ | 136.7
VMHPQ | 127.9
HPQRG | 33.4
NAHPQ | 121.9
HPQGV | 45.0
HPQFG | 141.0
YLHPQ | 152.2
MVHPM | 33.8
PHPQY | 41.4

same assay, conditions: 5-mer L-peptide library array, Cy5-streptavidin; from the average of three arrays

Substance | S/B (signal to background ratio)
GHPMG | 65.8
LQHPM | 62.8
LLHPQ | 105.6
SKHPQ | 66.3
YSHPM | 69.2
HIHPQ | 104.7
NHPQS | 70.7
THPMA | 67.4
FTHPM | 86.0
MIHPQ | 97.1
HPQGQ | 73.5
ADHPQ | 69.7
WKHPM | 66.5
VKHPQ | 64.6
HHPQF | 110.3
WHPMN | 67.3
AYHPM | 66.7
KFHPQ | 81.9
WPHPM | 95.9
HHPMA | 76.0
WEHPQ | 98.3
MKHPQ | 84.7
HPQNA | 108.8
KTHPQ | 86.3
HPQGS | 105.2

same assay, conditions: 5-mer L-peptide library, from the average of three arrays

Substance | S/B (signal to background ratio)
FLGHP | 4.2
HFPQN | 4.1
WGHPH | 4.1
WHPMW | 4.9
FDDFL [L-amino acid 5-mer array peptide] | 5.0
HPRWG | 4.2
YHFPQ | 4.9
WYHHP | 5.0
DWDSW [L-amino acid 5-mer array peptide] | 4.9
PLPDD [L-amino acid 5-mer array peptide] | 4.9

same assay, conditions: average of three arrays, L-peptide 5-mer library

Substance | S/B (signal to background ratio)
LARYH [L-amino acid 5-mer array peptide] | 12.2
DPFGW [L-amino acid 5-mer array peptide] | 10.1
PAWAH [L-amino acid 5-mer array peptide] | 50.0
LGEYH [L-amino acid 5-mer array peptide] | 21.3
FDDFL [L-amino acid 5-mer array peptide] | 5.0
LAMFH [L-amino acid 5-mer array peptide] | 21.1
LGQYH [L-amino acid 5-mer array peptide] | 31.1
DWDSW [L-amino acid 5-mer array peptide] | 4.9
PLPDD [L-amino acid 5-mer array peptide] | 4.9
FDNWL [L-amino acid 5-mer array peptide] | 9.9

same assay, conditions: signal to background ratio; 5-mer L-peptide library array, Cy5-streptavidin

Substance | S/B
LARYH [L-amino acid 5-mer array peptide] | 12.2
KHPMV | 6.9
HPMYR | 5.9
HPQKY | 5.5
DPFGW [L-amino acid 5-mer array peptide] | 10.1
HPQSF | 13.1
HPQRD | 10.7
AHPMY | 7.7
HPQQH | 12.2
HPQYR | 7.0
HPMYQ | 5.7
RHPMM | 11.6
HPQIS | 8.8
HPTPW | 15.1
HPQIN | 12.2
AHPMF | 10.8
HPMGV | 9.2
HPQWQ | 5.5
ESHPM | 17.2
HPMQA | 6.4
HPMHG | 13.1
HPQHV | 13.6
HPMVS | 8.8
GHPMM | 11.7
THPMR | 8.7
FDNWL [L-amino acid 5-mer array peptide] | 9.9
